Source: ChEMBL document CHEMBL1667855, “Pyrrolidinone diterpenoid from Isodon excisus and inhibition of nitric oxide production in lipopolysaccharide-induced macrophage RAW264.7 cells” (Bioorg Med Chem Lett, 2011)

Key:
RAW264.7 [1] = experiment: Inhibition of LPS-induced NO production in mouse RAW264.7 cells assessed as nitrite formation after 24 hrs; assay type: functional, cell-based; conditions: RAW264.7, 24 h
RAW264.7 [2] = experiment: Cytotoxicity against mouse RAW264.7 cells assessed as cell viability by cell counting-based calorimetric assay

SMILES	IC50 (RAW264.7 [1]) [µM]	Activity (RAW264.7 [2])
C=C1C(=O)[C@@]23CC[C@@H]4[C@](C)(CO[C@@H]5CCC(=O)N5)[C@@H](OC(C)=O)CC[C@@]4(C)[C@@H]2[C@@H](O)C[C@@H]1C3 [EXCISUSIN F]	10.4	Non-toxic
CC[C@H](O)/C=C/C=C/C=C/C(=O)CCCCCCCC(=O)O [CORCHORIFATTY ACID B]	> 40	Non-toxic
C[C@H](O)/C=C/[C@@]12O[C@]1(C)C[C@@H](O)CC2(C)C [CORCHOIONOL A]	> 40	Non-toxic

Further lines, with some results ahead:

IC50 (RAW264.7 [1]) [µM]	SMILES	Activity (RAW264.7 [2])
3.8	C=C1C(=O)[C@@]23CC(=O)[C@@H]4C(C)(C)[C@@H](OC(C)=O)C[C@H](O)[C@@]4(C)[C@@H]2[C@@H](O)C[C@@H]1C3 [INFLEXARABDONIN E]	Non-toxic
> 40	C=C1[C@@H]2C[C@H](O)[C@@H]3[C@@](C2)(C[C@H](O)[C@@H]2C(C)(C)[C@@H](OC(C)=O)C[C@H](O)[C@]23C)[C@@H]1OC(C)=O [INFLEXARABDONIN D]	Non-toxic
